Reference: PMC5218480 (PLoS ONE, 2017)

System: MV-4-11 cells
Test: Gene expression microarray analysis (Affymetrix PrimeView) and GSEA
Format: cell-based, human
Design: RFU PODN (11730768_x_at) / Fold change /veh PODN (11730768_x_at) / RFU LINC00158 (11744669_a_at) / Fold change /veh LINC00158 (11744669_a_at) / RFU DUSP10 (11751237_a_at) / Fold change /veh DUSP10 (11751237_a_at) / RFU ID3 (11757404_x_at) / Fold change /veh ID3 (11757404_x_at) / RFU PLEKHG5 (11737974_s_at) / Fold change /veh PLEKHG5 (11737974_s_at) / RFU LRRC4B (11730491_at) / Fold change /veh LRRC4B (11730491_at) / RFU GIMAP4 (11747438_a_at) / Fold change /veh GIMAP4 (11747438_a_at) / RFU KRT8 (11758183_x_at) / Fold change /veh KRT8 (11758183_x_at) / RFU CNN1 (11734310_a_at) / Fold change /veh CNN1 (11734310_a_at) / RFU VPS37D (11726825_at) / Fold change /veh VPS37D (11726825_at) / RFU C10orf10 (11716522_x_at) / Fold change /veh C10orf10 (11716522_x_at) / RFU KIR2DL2 /// KIR2DL4 /// KIR2DL5A /// KIR2DL5B /// KIR2DS1 /// KIR2DS2 /// KIR2DS3 /// KIR2DS4 /// KIR3DL3 /// KIR3DL3 /// KIR3DS1 (11738374_at) / Fold change /veh KIR2DL2 /// KIR2DL4 /// KIR2DL5A /// KIR2DL5B /// KIR2DS1 /// KIR2DS2 /// KIR2DS3 /// KIR2DS4 /// KIR3DL3 /// KIR3DL3 /// KIR3DS1 (11738374_at) / RFU C1QL1 (11718748_at) / Fold change /veh C1QL1 (11718748_at) / RFU TMPRSS4 (11747572_a_at) / Fold change /veh TMPRSS4 (11747572_a_at) / RFU HAMP (11756126_x_at) / Fold change /veh HAMP (11756126_x_at) / RFU RNFT2 (11725882_a_at) / Fold change /veh RNFT2 (11725882_a_at) / RFU NR4A2 (11747474_a_at) / Fold change /veh NR4A2 (11747474_a_at) / RFU ABCC12 (11746883_a_at) / Fold change /veh ABCC12 (11746883_a_at) / RFU TMEM136 (11760407_x_at) / Fold change /veh TMEM136 (11760407_x_at) / RFU CLDN22 /// WWC2 (11732394_at) / Fold change /veh CLDN22 /// WWC2 (11732394_at) / RFU HLA-DPB1 (11760878_x_at) / Fold change /veh HLA-DPB1 (11760878_x_at) / RFU SPINT1 (11716480_a_at) / Fold change /veh SPINT1 (11716480_a_at) / RFU GAP43 (11754022_s_at) / Fold change /veh GAP43 (11754022_s_at) / RFU A4GNT (11735810_at) / Fold change /veh A4GNT (11735810_at) / RFU PRB3 (11715151_x_at) / Fold change /veh PRB3 (11715151_x_at) / RFU TUBB4B (11761932_at) / Fold change /veh TUBB4B (11761932_at) / RFU CAPN14 (11732068_a_at) / Fold change /veh CAPN14 (11732068_a_at) / RFU TMCC2 (11721928_a_at) / Fold change /veh TMCC2 (11721928_a_at) / RFU IRGQ (11745062_a_at) / Fold change /veh IRGQ (11745062_a_at) / RFU FAM174B (11720279_a_at) / Fold change /veh FAM174B (11720279_a_at) / RFU TMPRSS4 (11748680_a_at) / Fold change /veh TMPRSS4 (11748680_a_at) / RFU FAM212B (11763350_a_at) / Fold change /veh FAM212B (11763350_a_at) / RFU PLEKHG5 (11743358_a_at) / Fold change /veh PLEKHG5 (11743358_a_at) / RFU ZSCAN30 (11745921_a_at) / Fold change /veh ZSCAN30 (11745921_a_at) / RFU CMKLR1 (11741424_a_at) / Fold change /veh CMKLR1 (11741424_a_at) / RFU LOC101060620 /// MAPK8IP1 (11723275_at) / Fold change /veh LOC101060620 /// MAPK8IP1 (11723275_at) / RFU SPTSSB (11747773_x_at) / Fold change /veh SPTSSB (11747773_x_at) / RFU PRSS12 (11739890_at) / Fold change /veh PRSS12 (11739890_at) / RFU BIN1 (11741810_x_at) / Fold change /veh BIN1 (11741810_x_at) / RFU WNT11 (11732464_a_at) / Fold change /veh WNT11 (11732464_a_at) / RFU C10orf10 (11716521_a_at) / Fold change /veh C10orf10 (11716521_a_at) / RFU C5orf56 (11738089_at) / Fold change /veh C5orf56 (11738089_at) / RFU CYB561 (11721691_x_at) / Fold change /veh CYB561 (11721691_x_at) / RFU ANKRD19P (11752326_a_at) / Fold change /veh ANKRD19P (11752326_a_at) / RFU OR2T12 /// OR2T33 /// OR2T8 (11738714_s_at) / Fold change /veh OR2T12 /// OR2T33 /// OR2T8 (11738714_s_at) / RFU VCAN (11748164_a_at) / Fold change /veh VCAN (11748164_a_at) / RFU JSRP1 (11732532_at) / Fold change /veh JSRP1 (11732532_at) / RFU KRTAP10-11 (11738290_x_at) / Fold change /veh KRTAP10-11 (11738290_x_at) / RFU MYO3A (11730013_a_at) / Fold change /veh MYO3A (11730013_a_at) / RFU EBF3 (11725865_a_at) / Fold change /veh EBF3 (11725865_a_at) / RFU CAMK2N1 (11719241_x_at) / Fold change /veh CAMK2N1 (11719241_x_at) / RFU C5orf56 (11738088_a_at) / Fold change /veh C5orf56 (11738088_a_at) / RFU OLFML3 (11715873_a_at) / Fold change /veh OLFML3 (11715873_a_at) / RFU LOC100653217 /// NTM (11731650_a_at) / Fold change /veh LOC100653217 /// NTM (11731650_a_at) / RFU MAPK11 (11762145_a_at) / Fold change /veh MAPK11 (11762145_a_at) / RFU FIZ1 (11724087_x_at) / Fold change /veh FIZ1 (11724087_x_at) / RFU OASL (11726364_x_at) / Fold change /veh OASL (11726364_x_at) / RFU SOX15 (11748057_x_at) / Fold change /veh SOX15 (11748057_x_at) / RFU CD79A (11719716_a_at) / Fold change /veh CD79A (11719716_a_at) / RFU HIST1H1D (11736915_at) / Fold change /veh HIST1H1D (11736915_at) / RFU CASKIN2 (11723855_a_at) / Fold change /veh CASKIN2 (11723855_a_at) / RFU LOC730098 (11760151_x_at) / Fold change /veh LOC730098 (11760151_x_at) / RFU OR4N2 (11742367_at) / Fold change /veh OR4N2 (11742367_at) / RFU PRRT2 (11749266_a_at) / Fold change /veh PRRT2 (11749266_a_at) / RFU SNX32 (11753110_a_at) / Fold change /veh SNX32 (11753110_a_at) / RFU CDHR5 (11726645_a_at) / Fold change /veh CDHR5 (11726645_a_at) / RFU RCAN1 (11760418_a_at) / Fold change /veh RCAN1 (11760418_a_at) / RFU FAM167A (11723789_a_at) / Fold change /veh FAM167A (11723789_a_at) / RFU FAM26E (11764081_at) / Fold change /veh FAM26E (11764081_at) / RFU ISYNA1 (11749810_s_at) / Fold change /veh ISYNA1 (11749810_s_at) / RFU ACY1 (11761880_at) / Fold change /veh ACY1 (11761880_at) / RFU 11764098_at / Fold change /veh 11764098_at / RFU SAMD14 (11745864_x_at) / Fold change /veh SAMD14 (11745864_x_at) / RFU NPB (11741838_a_at) / Fold change /veh NPB (11741838_a_at) / RFU TMPRSS6 (11731388_a_at) / Fold change /veh TMPRSS6 (11731388_a_at) / RFU KRTAP10-2 (11738614_at) / Fold change /veh KRTAP10-2 (11738614_at) / RFU ARHGAP8 /// PRR5-ARHGAP8 (11727945_x_at) / Fold change /veh ARHGAP8 /// PRR5-ARHGAP8 (11727945_x_at) / RFU KRTAP5-7 /// NADSYN1 (11734609_at) / Fold change /veh KRTAP5-7 /// NADSYN1 (11734609_at) / RFU RASL12 (11751679_a_at) / Fold change /veh RASL12 (11751679_a_at) / RFU CDKN2B (11736163_a_at) / Fold change /veh CDKN2B (11736163_a_at) / RFU PRF1 (11729649_at) / Fold change /veh PRF1 (11729649_at) / RFU, ZNF638 /// ZNF638-IT1 / Fold change vs veh, ZNF638 /// ZNF638-IT1 / RFU, PANK3 / Fold change vs veh, PANK3 / RFU, SH3YL1 / Fold change vs veh, SH3YL1 / RFU, ZEB2 / Fold change vs veh, ZEB2 / RFU, NRIP1 / Fold change vs veh, NRIP1 / RFU, PTTG1IP / Fold change vs veh, PTTG1IP / RFU, CAPN2 / Fold change vs veh, CAPN2 / RFU, MED14 / Fold change vs veh, MED14 / RFU, SNORA58 / Fold change vs veh, SNORA58 / RFU, C1orf63 / Fold change vs veh, C1orf63 / RFU, LRRFIP1 / Fold change vs veh, LRRFIP1 / RFU, NDUFAF7 / Fold change vs veh, NDUFAF7 / RFU, SLC12A2 / Fold change vs veh, SLC12A2 / RFU, IBTK / Fold change vs veh, IBTK / RFU, ESF1 / Fold change vs veh, ESF1 / Fold change vs veh, TMEM50B / RFU, TAOK1 / Fold change vs veh, TAOK1 / RFU, ACBD3 / Fold change vs veh, ACBD3 / RFU, TMA16 / Fold change vs veh, TMA16 / RFU, RWDD3 / Fold change vs veh, RWDD3 / RFU, BCAT1 / Fold change vs veh, BCAT1 / RFU, EDEM3 / Fold change vs veh, EDEM3 / RFU, TMEM33 / Fold change vs veh, TMEM33 / RFU, WDR75 / Fold change vs veh, WDR75 / RFU, AHCTF1 / Fold change vs veh, AHCTF1 / RFU, TFRC / Fold change vs veh, TFRC / RFU, ZDHHC17 / Fold change vs veh, ZDHHC17 / RFU, NOM1 / Fold change vs veh, NOM1 / RFU, ARL8B / Fold change vs veh, ARL8B / RFU, ZBTB11 / Fold change vs veh, ZBTB11 / RFU, TAMM41 / Fold change vs veh, TAMM41 / RFU, KIAA1704 /// LOC100996395 / Fold change vs veh, KIAA1704 /// LOC100996395 / RFU, ING1 / Fold change vs veh, ING1 / RFU, TRMT61B / Fold change vs veh, TRMT61B / RFU, FUBP3 / Fold change vs veh, FUBP3 / RFU, TP53 / Fold change vs veh, TP53 / RFU, TNKS2 / Fold change vs veh, TNKS2 / RFU, ZFP14 / Fold change vs veh, ZFP14 / RFU, ACTR2 / Fold change vs veh, ACTR2 / RFU, PPP3R1 / Fold change vs veh, PPP3R1 / RFU, PIK3R1 / Fold change vs veh, PIK3R1 / RFU, HNRNPA1 / Fold change vs veh, HNRNPA1 / RFU, RNF170 / Fold change vs veh, RNF170 / RFU, ZNF28 / Fold change vs veh, ZNF28 / RFU, RNGTT / Fold change vs veh, RNGTT / RFU, OGT / Fold change vs veh, OGT / RFU, BRD1 / Fold change vs veh, BRD1 / RFU, MARS / Fold change vs veh, MARS / RFU, ZNF655 / Fold change vs veh, ZNF655 / RFU, FAHD1 / Fold change vs veh, FAHD1 / RFU, BDP1 / Fold change vs veh, BDP1 / RFU, LRRCC1 / Fold change vs veh, LRRCC1 / RFU, ARID1A / Fold change vs veh, ARID1A / RFU, ZNF146 / Fold change vs veh, ZNF146 / RFU, ZNF330 / Fold change vs veh, ZNF330 / RFU, GPN3 / Fold change vs veh, GPN3 / RFU, C9orf123 / Fold change vs veh, C9orf123 / RFU, N4BP2L2 / Fold change vs veh, N4BP2L2 / RFU, ARFIP1 / Fold change vs veh, ARFIP1 / RFU, FAM179B / Fold change vs veh, FAM179B / RFU, BCL10 / Fold change vs veh, BCL10 / RFU, UHRF1BP1L / Fold change vs veh, UHRF1BP1L / RFU, BET1 / Fold change vs veh, BET1 / RFU, CNOT2 / Fold change vs veh, CNOT2 / RFU, ZNF268 / Fold change vs veh, ZNF268 / Fold change vs veh, ZNF507 / RFU, DGCR2 / Fold change vs veh, DGCR2 / RFU, WDSUB1 / Fold change vs veh, WDSUB1 / Fold change vs veh, HSP90B1 /// MIR3652 / RFU, ADSS / Fold change vs veh, ADSS / RFU, GK / Fold change vs veh, GK / RFU, ZNF148 / Fold change vs veh, ZNF148 / RFU, TAF9 / Fold change vs veh, TAF9 / RFU, SLC1A5 / Fold change vs veh, SLC1A5 / RFU, SLMO2 / Fold change vs veh, SLMO2 / RFU, ABCC4 / Fold change vs veh, ABCC4 / RFU, LOC101060439 /// RAP1B / Fold change vs veh, LOC101060439 /// RAP1B / RFU, RFX7 / Fold change vs veh, RFX7 / RFU, GTPBP10 / Fold change vs veh, GTPBP10 / RFU, CNEP1R1 / Fold change vs veh, CNEP1R1 / RFU, BIVM-ERCC5 /// ERCC5 / Fold change vs veh, BIVM-ERCC5 /// ERCC5 / RFU, ILF3 / Fold change vs veh, ILF3 / RFU 11762660_at / Fold change /veh 11762660_at / RFU VCAN (11757783_s_at) / Fold change /veh VCAN (11757783_s_at) / RFU DDX43 (11728927_at) / Fold change /veh DDX43 (11728927_at) / RFU KRT8 (11758188_x_at) / Fold change /veh KRT8 (11758188_x_at) / RFU NKD1 (11759106_at) / Fold change /veh NKD1 (11759106_at) / RFU SRD5A1 (11742802_a_at) / Fold change /veh SRD5A1 (11742802_a_at) / RFU TPSAB1 /// TPSB2 (11721975_s_at) / Fold change /veh TPSAB1 /// TPSB2 (11721975_s_at) / RFU GSTM3 (11746129_a_at) / Fold change /veh GSTM3 (11746129_a_at) / RFU IL23R (11737362_x_at) / Fold change /veh IL23R (11737362_x_at) / RFU TMEM51 (11727254_a_at) / Fold change /veh TMEM51 (11727254_a_at) / RFU PIWIL2 (11732686_x_at) / Fold change /veh PIWIL2 (11732686_x_at) / RFU ORM1 (11744905_x_at) / Fold change /veh ORM1 (11744905_x_at) / RFU CCDC152 (11743942_at) / Fold change /veh CCDC152 (11743942_at) / RFU ECM1 (11717891_a_at) / Fold change /veh ECM1 (11717891_a_at) / RFU IL23R (11748794_a_at) / Fold change /veh IL23R (11748794_a_at) / RFU TNFAIP8L3 (11732012_x_at) / Fold change /veh TNFAIP8L3 (11732012_x_at) / RFU MBOAT4 (11741988_at) / Fold change /veh MBOAT4 (11741988_at) / RFU 11764193_at / Fold change /veh 11764193_at / RFU TMEM53 (11763286_at) / Fold change /veh TMEM53 (11763286_at) / RFU MAGEB2 (11727129_at) / Fold change /veh MAGEB2 (11727129_at) / RFU TMEM200A (11744735_a_at) / Fold change /veh TMEM200A (11744735_a_at) / RFU CCDC152 (11751479_a_at) / Fold change /veh CCDC152 (11751479_a_at) / RFU FAM211A (11726209_a_at) / Fold change /veh FAM211A (11726209_a_at) / RFU RGS16 (11746705_a_at) / Fold change /veh RGS16 (11746705_a_at) / RFU VCAN (11755009_s_at) / Fold change /veh VCAN (11755009_s_at) / RFU RHOB (11743442_s_at) / Fold change /veh RHOB (11743442_s_at) / RFU RGS16 (11720943_a_at) / Fold change /veh RGS16 (11720943_a_at) / RFU RGS16 (11720944_at) / Fold change /veh RGS16 (11720944_at) / RFU, VPS4B / Fold change vs veh, VPS4B / RFU, CREB1 / Fold change vs veh, CREB1 / RFU, DNAJC13 / Fold change vs veh, DNAJC13 / RFU, GNAQ / Fold change vs veh, GNAQ / RFU, CDK5R1 / Fold change vs veh, CDK5R1 / RFU, ZRANB3 / Fold change vs veh, ZRANB3 / RFU, CUL4A / Fold change vs veh, CUL4A / RFU, CCNY / Fold change vs veh, CCNY / RFU, UFL1 / Fold change vs veh, UFL1 / RFU, COG3 / Fold change vs veh, COG3 / RFU, DIAPH2 / Fold change vs veh, DIAPH2 / RFU, SKA2 / Fold change vs veh, SKA2 / RFU, AFF3 / Fold change vs veh, AFF3 / RFU, LMF1 / Fold change vs veh, LMF1 / RFU, IPO11 / Fold change vs veh, IPO11 / RFU, DFFB / Fold change vs veh, DFFB / RFU, FOXP1 / Fold change vs veh, FOXP1 / RFU, CARD8 / Fold change vs veh, CARD8 / RFU, STRN3 / Fold change vs veh, STRN3 / RFU, ADK / Fold change vs veh, ADK / RFU, RASSF2 / Fold change vs veh, RASSF2 / RFU, WIPF1 / Fold change vs veh, WIPF1 / RFU, LARP1B / Fold change vs veh, LARP1B / RFU, RASA1 / Fold change vs veh, RASA1 / RFU, RB1 / Fold change vs veh, RB1 / RFU, PPFIA1 / Fold change vs veh, PPFIA1 / RFU, MAT2A / Fold change vs veh, MAT2A / RFU, CCT5 / Fold change vs veh, CCT5 / RFU, WDR92 / Fold change vs veh, WDR92 / RFU, CUX1 / Fold change vs veh, CUX1 / RFU, TTC7A / Fold change vs veh, TTC7A / RFU, TMEM135 / Fold change vs veh, TMEM135 / RFU, DEPTOR / Fold change vs veh, DEPTOR / RFU, CPM / Fold change vs veh, CPM / RFU, DNAJB6 / Fold change vs veh, DNAJB6 / RFU, CACNA2D3 / Fold change vs veh, CACNA2D3 / RFU, DTX4 / Fold change vs veh, DTX4 / RFU, TFCP2 / Fold change vs veh, TFCP2 / RFU, GMCL1 /// GMCL1P1 / Fold change vs veh, GMCL1 /// GMCL1P1 / RFU, AEBP2 / Fold change vs veh, AEBP2 / RFU, SNHG1 /// SNORD22 /// SNORD25 /// SNORD26 /// SNORD27 /// SNORD28 /// SNORD29 /// SNORD31 / Fold change vs veh, SNHG1 /// SNORD22 /// SNORD25 /// SNORD26 /// SNORD27 /// SNORD28 /// SNORD29 /// SNORD31 / Fold change (Aza/veh), C12orf56 (ProbeSet 11735607_a_at) / Fold change (ACY-1035/veh), C12orf56 (ProbeSet 11735607_a_at) / Fold change (Aza/veh), FGFR1OP (ProbeSet 11751329_s_at) / Fold change (ACY-1035/veh), FGFR1OP (ProbeSet 11751329_s_at) / Fold change (Aza/veh), VPS36 (ProbeSet 11739960_a_at) / Fold change (ACY-1035/veh), VPS36 (ProbeSet 11739960_a_at) / RFU SYPL1 (11715823_x_at) / Fold change /veh SYPL1 (11715823_x_at) / RFU IGFBP7 (11715501_s_at) / Fold change /veh IGFBP7 (11715501_s_at) / RFU REEP3 (11722064_at) / Fold change /veh REEP3 (11722064_at) / RFU IGLL1 (11728026_x_at) / Fold change /veh IGLL1 (11728026_x_at): dose or concentration left out as unconfirmed
Conditions: ProbeSet 11719817_x_at; LIST B

SMILES: Nc1ncn([C@@H]2O[C@H](CO)[C@@H](O)[C@H]2O)c(=O)n1 [azacitidine]
- RFU, BET1: 81.04 RFU
